Data published in ChEMBL document CHEMBL5230081, “Battle against Vancomycin-Resistant Bacteria: Recent Developments in Chemical Strategies” (J Med Chem, 2019).
In brackets after ≈: the same amount, converted by molar mass.

What was measured:
[1] = tested on: Staphylococcus aureus; test: Antibacterial activity against Vancomycin-intermediate Staphylococcus aureus 3797 assessed as inhibition in bacterial growth; type: functional
[2] = tested on: Enterococcus faecium; test: Antimicrobial activity against Vancomycin-resistant (Van A) Enterococcus faecium ATCC 51559 assessed as reduction in microbial growth; type: functional
[3] = tested on: Enterococcus faecium; test: Antimicrobial activity against Vancomycin-resistant Enterococcus faecium assessed as reduction in microbial growth; type: functional
[4] = tested on: Enterococcus faecalis; test: Antimicrobial activity against Vancomycin - resistant Enterococcus faecalis assessed as inhibition of bacterial growth; type: functional
[5] = tested on: Staphylococcus aureus; test: Antimicrobial activity against Vancomycin-resistant Staphylococcus aureus incubated for 20 hrs by broth dilution method; type: functional
[6] = tested on: Staphylococcus aureus; test: Antibacterial activity against Vancomycin-intermediate Staphylococcus aureus NRS1 assessed as bacterial growth inhibition; type: functional
[7] = Binding affinity to D-Ala-D-Lac
[8] = Binding affinity to D-Ala-D-Ala
[9] = tested on: Acinetobacter baumannii; test: Antibacterial activity against Acinetobacter baumannii R4942 assessed as reduction in bacterial growth by broth microdilution method; type: functional
[10] = tested on: Enterobacter cloacae; test: Antibacterial activity against Enterobacter cloacae NDM-1 assessed as reduction in bacterial growth by broth microdilution method; type: functional
[11] = tested on: Enterococcus faecium; test: Antimicrobial activity against Vancomycin-resistant (Van M) Enterococcus faecium ATCC 51559 assessed as reduction in microbial growth; type: functional
[12] = tested on: Staphylococcus aureus; test: Antibacterial activity against Vancomycin-intermediate Staphylococcus aureus Mu50 assessed as bacterial growth inhibition; type: functional
[13] = Enterococcus faecium, ATCC 51559, read-out: MIC

CN[C@H](CC(C)C)C(=O)N[C@H]1C(=O)N[C@@H](CC(N)=O)C(=O)N[C@H]2C(=O)N[C@H]3C(=O)N[C@H](C(=O)N[C@H](C(=O)NC[C@H]4OB(O)c5ccccc54)c4cc(O)cc(O)c4-c4cc3ccc4O)[C@H](O)c3ccc(c(Cl)c3)Oc3cc2cc(c3O[C@@H]2O[C@H](CO)[C@@H](O)[C@H](O)[C@H]2O[C@H]2C[C@](C)(N)[C@H](O)[C@H](C)O2)Oc2ccc(cc2Cl)[C@H]1O
MIC [1]: 1 µM

CN[C@H](CC(C)C)C(=O)N[C@H]1C(=O)N[C@@H](CC(N)=O)C(=O)N[C@H]2C(=O)N[C@H]3C(=O)N[C@H](C(=O)N[C@H](C(=O)NCCC[N+](C)(C)C)c4cc(O)cc(O)c4-c4cc3ccc4O)[C@H](O)c3ccc(c(Cl)c3)Oc3cc2cc(c3O[C@@H]2O[C@H](CO)[C@@H](O)[C@H](O)[C@H]2O[C@H]2C[C@](C)(NCc3ccc(-c4ccc(Cl)cc4)cc3)[C@H](O)[C@H](C)O2)Oc2ccc(cc2Cl)[C@H]1O
MIC [2, 13]: 0.01 µg/mL | MIC [3]: 0.01 µg/mL

CC(=O)OCC1=C(C(=O)O)N2C(=O)[C@@H](NC(=O)CCC[C@@H](N)C(=O)O)[C@H]2SC1 [CEPHALOSPORIN C]
MIC [4]: < 0.5 µg/mL | MIC [5]: 1 µg/mL

CCCCCCCCCCC(=O)N[C@@H](CCCCN)C(=O)N[C@@H](CCCCN)C(=O)NC(CCCCNC(=O)[C@H]1NC(=O)[C@H]2NC(=O)[C@H](NC(=O)[C@@H]3NC(=O)[C@H](CC(N)=O)NC(=O)[C@H](NC(=O)[C@@H](CC(C)C)NC)[C@H](O)c4ccc(c(Cl)c4)Oc4cc3cc(c4O[C@@H]3O[C@H](CO)[C@@H](O)[C@H](O)[C@H]3O[C@H]3C[C@](C)(N)[C@H](O)[C@H](C)O3)Oc3ccc(cc3Cl)[C@H]2O)c2ccc(O)c(c2)-c2c(O)cc(O)cc21)C(N)=O (some centres not stated)
MIC [6]: 0.03 µg/mL | MIC [2, 13]: 2 µg/mL | MIC [1]: 0.06 µg/mL

CN[C@H](CC(C)C)C(=O)N[C@H]1C(=O)N[C@@H](CC(N)=O)C(=O)N[C@H]2C(=S)N[C@H]3C(=O)N[C@H](C(=O)N[C@H](C(=O)O)c4cc(O)cc(O)c4-c4cc3ccc4O)[C@H](O)c3ccc(c(Cl)c3)Oc3cc2cc(c3O)Oc2ccc(cc2Cl)[C@H]1O
Ka [7]: 1.1 10^1/M | Ka [8]: 1.7 10^2/M

CN[C@H](CC(C)C)C(=O)N[C@H]1C(=O)N[C@@H](CC(N)=O)C(=O)N[C@H]2C(=O)N[C@H]3C(=O)N[C@H](C(=O)N[C@H](C(=O)O)c4cc(O)cc(O)c4-c4cc3ccc4O)[C@H](O)c3ccc(c(Cl)c3)Oc3cc2cc(c3O[C@@H]2O[C@H](CO)[C@@H](O)[C@H](O)[C@H]2O[C@H]2C[C@](C)(NCc3cccc(OCCSSCCOc4cccc(CN[C@@]5(C)C[C@H](O[C@H]6[C@H](Oc7c8cc9cc7Oc7ccc(cc7Cl)[C@@H](O)[C@@H](NC(=O)[C@@H](CC(C)C)NC)C(=O)N[C@@H](CC(N)=O)C(=O)N[C@H]9C(=O)N[C@H]7C(=O)N[C@H](C(=O)N[C@H](C(=O)O)c9cc(O)cc(O)c9-c9cc7ccc9O)[C@H](O)c7ccc(c(Cl)c7)O8)O[C@H](CO)[C@@H](O)[C@@H]6O)O[C@@H](C)[C@H]5O)c4)c3)[C@H](O)[C@H](C)O2)Oc2ccc(cc2Cl)[C@H]1O
MIC [6]: 8 µg/mL | MIC ([3]; Enterococcus faecium, read-out: MIC): 1 µg/mL

CCCCCCCCN(CCCNC(=O)[C@H]1NC(=O)[C@H]2NC(=O)[C@H](NC(=O)[C@@H]3NC(=O)[C@H](CC(N)=O)NC(=O)[C@H](NC(=O)[C@@H](CC(C)C)NC)[C@H](O)c4ccc(c(Cl)c4)Oc4cc3cc(c4O)Oc3ccc(cc3Cl)[C@H]2O)c2ccc(O)c(c2)-c2c(O)cc(O)cc21)CCCNC(=O)[C@H]1NC(=O)[C@H]2NC(=O)[C@H](NC(=O)[C@@H]3NC(=O)[C@H](CC(N)=O)NC(=O)[C@H](NC(=O)[C@@H](CC(C)C)NC)[C@H](O)c4ccc(c(Cl)c4)Oc4cc3cc(c4O)Oc3ccc(cc3Cl)[C@H]2O)c2ccc(O)c(c2)-c2c(O)cc(O)cc21
Ka [7]: 5.7 10^3/M | Ka [8]: 1 10^5/M | MIC [2, 13]: 2.5 µM | MIC [1]: 0.6 µM

CN[C@@H](CC(C)C)C(=O)N[C@@H]1C(=O)N[C@H](CC(N)=O)C(=O)N[C@@H]2C(=O)N[C@@H]3C(=O)N[C@@H](C(=O)N[C@@H](C(=O)NCCCSSCCCNC(=O)[C@H]4NC(=O)[C@H]5NC(=O)[C@H](NC(=O)[C@@H]6NC(=O)[C@H](CC(N)=O)NC(=O)[C@H](NC(=O)[C@@H](CC(C)C)NC)[C@H](O)c7ccc(c(Cl)c7)Oc7cc6cc(c7O[C@@H]6O[C@H](CO)[C@@H](O)[C@H](O)[C@H]6O[C@H]6C[C@](C)(N)[C@H](O)[C@H](C)O6)Oc6ccc(cc6Cl)[C@H]5O)c5ccc(O)c(c5)-c5c(O)cc(O)cc54)c4cc(O)cc(O)c4-c4cc3ccc4O)[C@@H](O)c3ccc(c(Cl)c3)Oc3cc2cc(c3O[C@@H]2O[C@H](CO)[C@@H](O)[C@H](O)[C@H]2O[C@H]2C[C@](C)(N)[C@H](O)[C@H](C)O2)Oc2ccc(cc2Cl)[C@@H]1O
MIC [5]: 15 µM

CN[C@H](CC(C)C)C(=O)N[C@H]1C(=O)N[C@@H](CC(N)=O)C(=O)N[C@H]2C(=O)N[C@H]3C(=O)N[C@H](C(=O)N[C@H](C(=O)NCCCCCCNC(=O)[C@H]4NC(=O)[C@H]5NC(=O)[C@H](NC(=O)[C@@H]6NC(=O)[C@H](CC(N)=O)NC(=O)[C@H](NC(=O)[C@@H](CC(C)C)NC)[C@H](O)c7ccc(c(Cl)c7)Oc7cc6cc(c7O[C@@H]6O[C@H](CO)[C@@H](O)[C@H](O)[C@H]6O[C@H]6C[C@](C)(N)[C@H](O)[C@H](C)O6)Oc6ccc(cc6Cl)[C@H]5O)c5ccc(O)c(c5)-c5c(O)cc(O)cc54)c4cc(O)cc(O)c4-c4cc3ccc4O)[C@H](O)c3ccc(c(Cl)c3)Oc3cc2cc(c3O[C@@H]2O[C@H](CO)[C@@H](O)[C@H](O)[C@H]2O[C@H]2C[C@](C)(N)[C@H](O)[C@H](C)O2)Oc2ccc(cc2Cl)[C@H]1O
MIC [5]: 32 µM

CCCCCCCC[N+](C)(C)CCCNC(=O)[C@H]1NC(=O)[C@H]2NC(=O)[C@H](NC(=O)[C@@H]3NC(=O)[C@H](CC(N)=O)NC(=O)[C@H](NC(=O)[C@@H](CC(C)C)NC)[C@H](O)c4ccc(c(Cl)c4)Oc4cc3cc(c4O[C@@H]3O[C@H](CO)[C@@H](O)[C@H](O)[C@H]3O[C@H]3C[C@](C)(N)[C@H](O)[C@H](C)O3)Oc3ccc(cc3Cl)[C@H]2O)c2ccc(O)c(c2)-c2c(O)cc(O)cc21
MIC [9]: 7 µM | MIC [6]: 0.4 µM | MIC [5]: 0.3 µM | MIC [2, 13]: 12 µM | MIC [10]: > 100 µM

CN[C@H](CC(C)C)C(=O)N[C@H]1C(=O)N[C@@H](CC(N)=O)C(=O)N[C@H]2C(=N)N[C@H]3C(=O)N[C@H](C(=O)N[C@H](C(=O)O)c4cc(O)cc(O)c4-c4cc3ccc4O)[C@H](O)c3ccc(c(Cl)c3)Oc3cc2cc(c3O)Oc2ccc(cc2Cl)[C@H]1O
Ka [7]: 6.9 10^4/M | Ka [8]: 7.3 10^4/M

CN[C@H](CC(C)C)C(=O)N[C@H]1C(=O)N[C@@H](CC(N)=O)C(=O)N[C@H]2CN[C@H]3C(=O)N[C@H](C(=O)N[C@H](C(=O)O)c4cc(O)cc(O)c4-c4cc3ccc4O)[C@H](O)c3ccc(c(Cl)c3)Oc3cc2cc(c3O)Oc2ccc(cc2Cl)[C@H]1O
Ka [7]: 5.2 10^3/M | Ka [8]: 4.8 10^3/M

CCCCCCCCCCCCCC(=O)N[C@@H](CCCCN)C(=O)N[C@@H](CCCCN)C(=O)N[C@@H](CCCCN)C(=O)NC(CCCCNC(=O)[C@H]1NC(=O)[C@H]2NC(=O)[C@H](NC(=O)[C@@H]3NC(=O)[C@H](CC(N)=O)NC(=O)[C@H](NC(=O)[C@@H](CC(C)C)NC)[C@H](O)c4ccc(c(Cl)c4)Oc4cc3cc(c4O[C@@H]3O[C@H](CO)[C@@H](O)[C@H](O)[C@H]3O[C@H]3C[C@](C)(N)[C@H](O)[C@H](C)O3)Oc3ccc(cc3Cl)[C@H]2O)c2ccc(O)c(c2)-c2c(O)cc(O)cc21)C(=O)O (some centres not stated)
MIC [6]: 0.03 µg/mL | MIC [5]: 0.05 µg/mL | MIC [2]: 0.125 µg/mL

CCCCCCCCCCN[C@@]1(C)C[C@H](O[C@H]2[C@H](Oc3c4cc5cc3Oc3ccc(cc3Cl)[C@@H](O)[C@@H](NC(=O)[C@@H](CC(C)C)NC)C(=O)N[C@@H](CC(N)=O)C(=O)N[C@H]5C(=O)N[C@H]3C(=O)N[C@H](C(=O)N[C@H](C(=O)ONCCCNC(=O)[C@H](O)[C@@H](O)[C@H](O[C@@H]5O[C@H](CO)[C@H](O)[C@H](O)[C@H]5O)[C@H](O)CO)c5cc(O)cc(O)c5-c5cc3ccc5O)[C@H](O)c3ccc(c(Cl)c3)O4)O[C@H](CO)[C@@H](O)[C@@H]2O)O[C@@H](C)[C@H]1O
MIC [4]: 0.7 µM | Ka [7]: 6 10^4/M | MIC [2]: 1 µM | MIC [2, 13]: 0.7 µM

CN[C@H](CC(C)C)C(=O)N[C@H]1C(=O)N[C@@H](CC(N)=O)C(=O)N[C@H]2C(=O)N[C@H]3C(=O)N[C@H](C(=O)N[C@H](C(=O)O)c4cc(O)c(CNCCO[C@@H]5O[C@H](CO)[C@H](O)[C@H](O)[C@H]5O)c(O)c4-c4cc3ccc4O)[C@H](O)c3ccc(c(Cl)c3)Oc3cc2cc(c3O[C@@H]2O[C@H](CO)[C@@H](O)[C@H](O)[C@H]2O[C@H]2C[C@](C)(NCc3ccc(-c4ccc(C(F)(F)F)cc4)cc3)[C@H](O)[C@H](C)O2)Oc2ccc(cc2Cl)[C@H]1O
MIC [11]: 2 µg/mL | MIC [12]: 0.25 µg/mL (≈ 0.13 µM) | MIC [2]: ≤ 0.06 µg/mL | MIC [2, 13]: 1 µg/mL

CN[C@H](CC(C)C)C(=O)N[C@H]1C(=O)N[C@@H](CC(N)=O)C(=O)N[C@H]2C(=O)N[C@H]3C(=O)N[C@H](C(=O)N[C@H](C(=O)O)c4cc(O)c(CN[C@H]5C(O)O[C@H](CO)[C@H](O)[C@@H]5O)c(O)c4-c4cc3ccc4O)[C@H](O)c3ccc(c(Cl)c3)Oc3cc2cc(c3O[C@@H]2O[C@H](CO)[C@@H](O)[C@H](O)[C@H]2O[C@H]2C[C@](C)(NCc3ccc(-c4ccc(Cl)cc4)cc3)[C@H](O)[C@H](C)O2)Oc2ccc(cc2Cl)[C@H]1O (some centres not stated)
MIC [11]: 4 µg/mL | MIC [12]: 0.12 µg/mL (≈ 0.0652 µM) | MIC [2]: 0.25 µg/mL | MIC [2, 13]: 2 µg/mL
